# Experiments:
# [1] = system: Wnt/β-catenin signaling in MuSKΔCRD primary myotubes; assay: β-catenin translocation to the nucleus in primary myotubes; format: cell-based, mice
# Experimental: (§1) Muscle cells were isolated from P7-P10 hind limb Tibialis Anterior (TA) and Gastrocnemius muscles from MuSKΔCRD or WT mice. Briefly, muscle tissues were excised, separated from connective tissue, minced in dissecting medium (DMEM-F12 medium containing 2 mM glutamine, 2% penicillin/streptomycin (500 U), 2% Fungizone) and dissociated in dissecting medium containing 0.2% type I collagenase (Gibco) for 90 min at 37° C. in water bath. Cells were centrifugated, filtered and resuspended in proliferating medium (dissecting medium supplemented with 20% horse serum and 2% Ultroser G, Pall). After overnight pre-plating, cells were expanded in Matrigel (Corning) coated dishes for 3 to 5 days and differentiated in differentiating medium (dissecting medium supplemented with 2% horse serum) for 5 days. When indicated, myotubes were treated with recombinant Agrin (0.4 μg/ml, R&D system), Wnt11 (10 ng/ml, R&D system) or LiCl (2.5 mM, Sigma) for 16 h.
# MuSKΔCRD mice [2] = assay: NMJ morphology in postnatal MuSKΔCRD mice injected P10 to P60 (isolated TA muscle fibers); format: in vivo
# Experimental: (§2) Isolated muscle fibers were labeled with antibodies as for whole-mount immunostaining Incubation times were the following: 3 hours for blocking, overnight at 4° C. for incubation with primary or secondary antibodies.
# (§3) All images were collected on a microscope (model BX61; Olympus) equipped with a Fast 1394 Digital CCD FireWire camera (model Retiga 2000R; Qimaging) and a 20× objective or on a confocal laser scanning microscope (Zeiss LSM-710) equipped with a 20× objective and 63× oil objective. Collected Z-stacks confocal images (5 to 20 stacks with 1 to 1.5 μm (20×) z-steps) and image capture were made using LSM Image Browser. The same laser power and parameter setting were applied to ensure fair comparison between WT and MuSKΔCRD muscles. Multiple Tile Scanned images were taken to cover the size of the whole diaphragm. Confocal images presented are single-projected image derived from overlaying each set of stacks. For quantification of the AChR clusters number, volume and intensity, image stacks were quantified using the ImageJ (version 1.46m) plugin “3D object counter” (Bolte and Cordeliéres, 2006). The threshold intensity was set by visual inspection of AChR clusters, being the same between WT and MuSKΔCRD images. The endplate band width was defined by the distance between the two farthest AChR clusters from the main nerve trunk. Around 100 measurements regularly spaced and covering the entire diaphragm were taken. At least 4 diaphragms or 50 isolated muscle fibers of each genotype were analyzed and quantified. To evaluate β-catenin translocation to subsynaptic nuclei in isolated muscle fibers, image stacks corresponding to nuclei were used for quantification using the ImageJ intensity plot profile measuring the intensity of β-catenin and Dapi fluorescence within the segmented line.
# E12 pregnant mice or P10 adult mice were intraperitoneally injected with LiCl (Sigma, 600 mM-10 μl/g body weight) or placebo NaCl solution (0,0009%-10 μl/g body weight). Daily injections were made from E12 to E18 or from P10 to P60. […]
# [3] = system: Wnt/β-catenin signaling in MuSKΔCRD mice; assay: β-catenin translocation to subsynaptic nuclei in isolated TA muscle fibers of treated MuSKΔCRD mice; format: in vivo; conditions: P40 TA muscle fibers, compared to NaCl-treated MuSKΔCRD
# Experimental: as §2
# All images were collected on a microscope (model BX61; Olympus) equipped with a Fast 1394 Digital CCD FireWire camera (model Retiga 2000R; Qimaging) and a 20× objective or on a confocal laser scanning microscope (Zeiss LSM-710) equipped with a 20× objective and 63× oil objective. Collected Z-stacks confocal images (5 to 20 stacks with 1 to 1.5 μm (20×) z-steps) and image capture were made using LSM Image Browser. The same laser power and parameter setting were applied to ensure fair comparison between WT and MuSKΔCRD muscles. Multiple Tile Scanned images were taken to cover the size of the whole diaphragm. […] For quantification of the AChR clusters number, volume and intensity, image stacks were quantified using the ImageJ (version 1.46m) plugin “3D object counter” (Bolte and Cordeliéres, 2006). […] At least 4 diaphragms or 50 isolated muscle fibers of each genotype were analyzed and quantified. To evaluate β-catenin translocation to subsynaptic nuclei in isolated muscle fibers, image stacks corresponding to nuclei were used for quantification using the ImageJ intensity plot profile measuring the intensity of β-catenin and Dapi fluorescence within the segmented line. […]
# MuSKΔCRD embryos = assay: NMJ formation in E18.5 MuSKΔCRD embryos after intraperitoneal injections in pregnant mice (whole mount diaphragm); format: in vivo
# Experimental: Diaphragm muscles were dissected and fixed (4% paraformaldehyde in PBS) for 1 h at room temperature and further fixed (1% formaldehyde in PBS) overnight at 4° C. Muscles were washed three times for 15 minutes in PBS, incubated for 15 minutes with 100 mM glycine in PBS and rinsed in PBS. Muscles were permeabilized (0.5% Triton X-100 in PBS) for 1 h and blocked for 4 hours in blocking buffer (3% BSA, 5% goat serum and 0.5% Triton X-100 in PBS). Muscles were incubated overnight at 4° C. with rabbit polyclonal antibodies against neurofilament and synaptophysin in blocking solution. After three 1-hour washes in PBS, muscles were incubated overnight at 4° C. with Alexa-488 goat anti-rabbit IgG and Alexa-594-conjugated-α-bungarotoxin (α-BGT) in blocking solution. After three 1-hour washes in PBS, muscles were flat-mounted in Vectashield (Vector Labs) mounting medium.
# as §3
# (§4) E12 pregnant mice or P10 adult mice were intraperitoneally injected with LiCl (Sigma, 600 mM-10 μl/g body weight) or placebo NaCl solution (0,0009%-10 μl/g body weight). Daily injections were made from E12 to E18 or from P10 to P60. After embryos genotyping, E18.5 or P60 diaphragms of LiCl-treated MuSKΔCRD mice were analyzed and compared to WT or NaCl-treated MuSKΔCRD.
# [4] = system: MuSKΔCRD primary myotubes; assay: AChR clustering in MuSKΔCRD primary myotubes; format: cell-based, mice; conditions: 16 h
# Experimental: as §1
# All images were collected on a microscope (model BX61; Olympus) equipped with a Fast 1394 Digital CCD FireWire camera (model Retiga 2000R; Qimaging) and a 20× objective or on a confocal laser scanning microscope (Zeiss LSM-710) equipped with a 20× objective and 63× oil objective. Collected Z-stacks confocal images (5 to 20 stacks with 1 to 1.5 μm (20×) z-steps) and image capture were made using LSM Image Browser. The same laser power and parameter setting were applied to ensure fair comparison between WT and MuSKΔCRD muscles. […] For quantification of the AChR clusters number, volume and intensity, image stacks were quantified using the ImageJ (version 1.46m) plugin “3D object counter” (Bolte and Cordeliéres, 2006). […] At least 4 diaphragms or 50 isolated muscle fibers of each genotype were analyzed and quantified. To evaluate β-catenin translocation to subsynaptic nuclei in isolated muscle fibers, image stacks corresponding to nuclei were used for quantification using the ImageJ intensity plot profile measuring the intensity of β-catenin and Dapi fluorescence within the segmented line.
# MuSKΔCRD mice [5] = assay: Rail-grip test and grip strength in treated MuSKΔCRD mice; format: in vivo; conditions: compared to NaCl-treated MuSKΔCRD mice
# Experimental: Animals were allowed to grasp a metal rail suspended in midair and their latency to release the rail was recorded. Each mouse (N=6 for each genotype) was subjected to five trials with at least 10 min rest period between tests.
# The grip strength was measured using a grip force tensiometer (Bioseb) according to the TREAT-NMD guidelines. Forelimbs and hindlimbs traction strength were recorded according to the manufacter's instructions. Three measurements were performed per animal.
# as §4
# WT primary myotubes = assay: AChR clustering in WT primary myotubes; format: cell-based, mice; conditions: Wnt11 10 ng/ml, 16 h
# Experimental: as §1, with “When indicated, myotubes were treated with recombinant Agrin (0.4 μg/ml, R&D system), Wnt11 (10 ng/ml, R&D system) or LiCl (2.5 mM, Sigma) for 16 h.” left out
# All images were collected on a microscope (model BX61; Olympus) equipped with a Fast 1394 Digital CCD FireWire camera (model Retiga 2000R; Qimaging) and a 20× objective or on a confocal laser scanning microscope (Zeiss LSM-710) equipped with a 20× objective and 63× oil objective. […] For quantification of the AChR clusters number, volume and intensity, image stacks were quantified using the ImageJ (version 1.46m) plugin “3D object counter” (Bolte and Cordeliéres, 2006). […] At least 4 diaphragms or 50 isolated muscle fibers of each genotype were analyzed and quantified. […]
# [6] = P40 TA, compared to NaCl-treated mice
# [7] = E18.5, i.p. E12 to E18.5, vs NaCl-treated MuSKΔCRD
molecule,measurement,setting,value
"[Cl-].[Li+] [LiCl, lithium chloride]",β-catenin translocation to the nucleus,[1]; LiCl-treated compared to Wnt11-treated MuSKΔCRD myotubes,increased β-catenin translocation to the nucleus
same,size of NMJ structures,"MuSKΔCRD mice [2]; P40 TA isolated muscle fibers, compared to NaCl-treated MuSKΔCRD",increased in size
same,decrease of number of AChRs fragments per NMJ,MuSKΔCRD mice [2]; [6],44%
same,increase of AChR cluster area,MuSKΔCRD mice [2]; [6],40%
same,increase of synaptophysin area,MuSKΔCRD mice [2]; [6],105%
same,β-catenin translocation to subsynaptic nuclei,[3],strong increase
same,reduction of number of bypassing neurites,"MuSKΔCRD embryos; E18.5, compared to NaCl-treated embryos",33%
same,reduction of length of primary nerve branches,"MuSKΔCRD embryos; E18.5, i.p. E12 to E18.5",35%
same,reduction of length of secondary nerve branches,"MuSKΔCRD embryos; E18.5, i.p. E12 to E18.5",28%
same,endplate band width reduction,"MuSKΔCRD embryos; E18.5, i.p. E12 to E18.5, compared to NaCl-treated mutant embryos",23%
same,gain in AChR clusters intensity,MuSKΔCRD embryos; [7],20%
same,gain in AChR clusters number,MuSKΔCRD embryos; [7],103%
same,gain in AChR clusters volume,MuSKΔCRD embryos; [7],186%
same,rescue of pre- and postsynaptic defects,MuSKΔCRD embryos; E18.5 MuSKΔCRD embryos,almost fully rescued both pre- and postsynaptic defects
same,increase in the number of AChR clusters,"[4]; LiCl 2.5 mM, MuSKΔCRD primary myotubes",6 fold
same,fore limb strength,MuSKΔCRD mice [5],significantly improved
same,hind limb strength,MuSKΔCRD mice [5],significantly improved
same,latencies to fall from the rail grip,MuSKΔCRD mice [5],significantly improved
"agrin: recombinant Agrin (R&D system), nerve-secreted protein that binds LRP4 and activates MuSK",number of AChR clusters following agrin treatment,"[4]; MuSKΔCRD compared to WT primary myotubes, agrin 0.4 μg/ml",No difference
"Wnt11: member of the Wnt family known to interact with MuSK CRD; recombinant, R&D system (protein, UniProt O96014 25-354, looked up) Protein Wnt-11: IKWLALSKTPSALALNQTQHCKQLEGLVSAQVQLCRSNLELMHTVVHAAREVMKACRRAFADMRWNCSSIELAPNYLLDLERGTRESAFVYALSAAAISHAIARACTSGDLPGCSCGPVPGEPPGPGNRWGGCADNLSYGLLMGAKFSDAPMKVKKTGSQANKLMRLHNSEVGRQALRASLEMKCKCHGVSGSCSIRTCWKGLQELQDVAADLKTRYLSATKVVHRPMGTRKHLVPKDLDIRPVKDSELVYLQSSPDFCMKNEKVGSHGTQDRQCNKTSNGSDSCDLMCCGRGYNPYTDRVVERCHCKYHWCCYVTCRRCERTVERYVCK",β-catenin translocation to the nucleus,[1]; Wnt11-treated MuSKΔCRD compared to Wnt11-treated WT primary myotubes,strongly reduced
same,increase in the number of AChR clusters,WT primary myotubes,4.5 fold
same,decrease of Wnt11-induced number of AChR clusters,"[4]; Wnt11-treated MuSKΔCRD primary myotubes, compared to Wnt11-treated WT, 10 ng/ml",80%

# From US20230115252A1, “METHODS FOR TREATING NEUROMUSCULAR JUNCTION-RELATED DISEASES” (NSERM (Institut National de la Sante et de la Recherche …, priority 2014, published 2023)
